Measurements as given in paper PMC6792352, “Limited Chemical Structural Diversity Found to Modulate Thyroid Hormone Receptor in the Tox21 Chemical Library” (Environmental Health Perspectives, 2019).
Where a name gives a salt, the structure may show the parent alone.

Assay: in vitro
Settings: rat, gh3-tre-luc cells

Compound	CC50 at 24 h (AC50 (uM) modified / 1000)	also measured
CCOc1ccc(N)cc1 [4-Ethoxyaniline]		CC50 at 24 h (AC50 (uM) modified / 1000, Tox21_110001=Tox21_201946, viability, 1 nM T3 present, 24 h): > 90 µM
CCOc1ccc(O)cc1 [4-Ethoxyphenol]	> 90 µM	
CCc1ccc(O)c(OC)c1 [4-Ethyl-2-methoxyphenol]	> 90 µM	
CCc1ccc(C=O)cc1 [4-Ethylbenzaldehyde]	> 90 µM	
CCc1ccc(S(=O)(=O)O)cc1 [4-Ethylbenzenesulfonic acid]	> 50 µM	
C#CC(O)C(CC)CCCC (stereo not drawn) [4-Ethyloct-1-yn-3-ol]	> 90 µM	
CCc1ccc(O)cc1 [4-Ethylphenol]	> 90 µM	
CCc1ccc(C)cc1 [4-Ethyltoluene]	> 90 µM	
Nc1ccc(F)cc1 [4-Fluoroaniline]	> 100 µM	
O=Cc1ccc(F)cc1 [4-Fluorobenzaldehyde]	> 90 µM	
CCCCCCCc1ccc(O)cc1 [4-Heptylphenol]		CC50 at 24 h (AC50 (uM) modified / 1000, Tox21_110001=Tox21_301548, viability, 1 nM T3 present, 24 h): > 90 µM
C/C=C/C(=O)CC [4-Hexen-3-one]	> 20 µM	
CCCCCCc1ccc(-c2ccc(C#N)cc2)cc1 [4-Hexyl-4'-cyanobiphenyl]	> 90 µM	
CCCCCCc1ccc(N)cc1 [4-Hexylaniline]	81.3 µM	
CCCCCCOc1ccc(N)cc1 [4-Hexyloxyaniline]	> 90 µM	
NNc1ccc(C(=O)O)cc1 [4-Hydrazinobenzoic acid]	> 90 µM	
O=[P@]1(N(CCCl)CCCl)N[C@H](OO)CCO1 [4-Hydroperoxy cyclophosphamide]		CC50 at 24 h (AC50 (uM) modified / 1000, Tox21_110001=Tox21_113608, viability, 1 nM T3 present, 24 h): > 50 µM
CC1(C)CC(O)CC(C)(C)N1[O] [4-Hydroxy-2,2,6,6-tetramethylpiperidin-1-yl)oxidanyl]	> 90 µM	
CC1=C(O)C(=O)C(C)O1 (stereo not drawn) [4-Hydroxy-2,5-dimethyl-3(2H)furanone]	> 90 µM	
COc1cc(C=O)ccc1O [4-Hydroxy-3-methoxybenzaldehyde]	> 50 µM	
O=C(c1ccc(O)cc1)c1ccc(Cl)cc1 [4-Hydroxy-4'-chlorobenzophenone]	> 90 µM	
CC1=C(O)C(=O)CO1 [4-Hydroxy-5-methyl-3-furanone]	> 90 µM	

Compound	CC50 at 24 h (AC50 (uM) modified / 1000)	also measured
O=S(=O)(O)c1cc(O)c2ccc(Nc3ccccc3)cc2c1 [4-Hydroxy-7-(phenylamino)naphthalene-2-sulfonic acid]	> 90 µM	
CC(=O)c1ccc(O)cc1 [4-Hydroxyacetophenone]	> 90 µM	
C[C@]12CCC(=O)C(O)=C1CC[C@@H]1[C@@H]2CC[C@]2(C)C(=O)CC[C@@H]12 [4-Hydroxyandrostenedione]		CC50 at 24 h (AC50 (uM) modified / 1000, Tox21_110001=Tox21_112111, viability, 1 nM T3 present, 24 h): > 50 µM; CC50 at 24 h (AC50 (uM) modified / 1000, Tox21_110001=Tox21_302286, viability, 1 nM T3 present, 24 h): > 90 µM
O=C(O)c1ccc(O)cc1 [4-Hydroxybenzoic acid]	> 90 µM	
O=C(c1ccccc1)c1ccc(O)cc1 [4-Hydroxybenzophenone]	> 90 µM	
C=CC(=O)OCCCCO [4-Hydroxybutyl prop-2-enoate]		CC50 at 24 h (AC50 (uM) modified / 1000, Tox21_110001=Tox21_302651, viability, 1 nM T3 present, 24 h): 73.9 µM
CC(C)c1ccc(C=O)cc1 [4-Isopropylbenzaldehyde]	> 90 µM	
CC(C)c1ccc(S(=O)(=O)O)cc1 [4-Isopropylbenzenesulfonic acid]	> 90 µM	
CC(C)c1ccc(C#N)cc1 [4-Isopropylbenzonitrile]	> 90 µM	
CC(C)c1ccc(CO)cc1 [4-Isopropylbenzyl alcohol]	> 90 µM	
CC(C)C1CCC(O)CC1 (stereo not drawn) [4-Isopropylcyclohexanol]	> 90 µM	
CC(C)c1ccc(O)cc1 [4-Isopropylphenol]		CC50 at 24 h (AC50 (uM) modified / 1000, Tox21_110001=Tox21_301323, viability, 1 nM T3 present, 24 h): > 90 µM
COc1ccc(Nc2ccccc2)c(C)c1 [4-Methoxy-2-methyl-N-phenylaniline]	> 90 µM	
COc1ccc(N)c(C)c1 [4-Methoxy-2-methylaniline]	> 90 µM	
COc1ccc(N)c([N+](=O)[O-])c1 [4-Methoxy-2-nitroaniline]	> 90 µM	
COc1ccc(C(=O)Nc2ccccc2)cc1[N+](=O)[O-] [4-Methoxy-3-nitro-N-phenylbenzamide]	> 90 µM	
COC(C)(C)CC(C)=O [4-Methoxy-4-methyl-2-pentanone]	> 90 µM	
COc1ccc(/C=C/C(=O)O)cc1 [4-Methoxy-(2E)-cinnamic acid]	> 50 µM	
COc1ccc(N)cc1 [4-Methoxyaniline hydrochloride]		CC50 at 24 h (AC50 (uM) modified / 1000, Tox21_110001=Tox21_201498, viability, 1 nM T3 present, 24 h): > 90 µM
COc1ccc(N)cc1 [4-Methoxyaniline]		CC50 at 24 h (AC50 (uM) modified / 1000, Tox21_110001=Tox21_303039, viability, 1 nM T3 present, 24 h): > 100 µM
COc1ccc(C=O)cc1 [4-Methoxybenzaldehyde]	> 90 µM	
COc1ccc(CCO)cc1 [4-Methoxybenzeneethanol]	> 90 µM	

Compound	CC50 at 24 h (AC50 (uM) modified / 1000)	also measured
COc1ccc(COC(C)=O)cc1 [4-Methoxybenzyl acetate]	> 80 µM	
COc1ccc(COC=O)cc1 [4-Methoxybenzyl formate]	> 90 µM	
COc1ccc(O)cc1 [4-Methoxyphenol]	> 90 µM	
CC1=CCC(O)(C(C)C)CC1 (stereo not drawn) [4-Methyl-1-(propan-2-yl)cyclohex-3-en-1-ol]	> 90 µM	
CC(C)CC(O)Cc1ccccc1 (stereo not drawn) [4-Methyl-1-phenyl-2-pentanol]	> 90 µM	
CC1CN(c2ccccc2)NC1=O (stereo not drawn) [4-Methyl-1-phenylpyrazolidin-3-one]	> 90 µM	
Cc1ccc(N)c([N+](=O)[O-])c1 [4-Methyl-2-nitroaniline]	> 90 µM	
Cc1ccc(O)c([N+](=O)[O-])c1 [4-Methyl-2-nitrophenol]	> 90 µM	
CC(C)CC(C)O (stereo not drawn) [4-Methyl-2-pentanol]	> 90 µM	
CC(=O)CC(C)C [4-Methyl-2-pentanone]	> 90 µM	
CCCC(C)C(O)CC (stereo not drawn) [4-Methyl-3-heptanol]	> 90 µM	
Cc1ccc(N)cc1[N+](=O)[O-] [4-Methyl-3-nitroaniline]	> 90 µM	
Cc1ccc(C(=O)O)cc1[N+](=O)[O-] [4-Methyl-3-nitrobenzoic acid]	> 90 µM	
Cc1ccc(N)cc1 [4-Methylaniline hydrochloride]		CC50 at 24 h (AC50 (uM) modified / 1000, Tox21_110001=Tox21_200517, viability, 1 nM T3 present, 24 h): > 90 µM
Cc1ccc(S(=O)(=O)O)cc1 [4-Methylbenzenesulfonic acid]	> 90 µM	
Cc1ccc(C(=O)O)cc1 [4-Methylbenzoic acid]	> 90 µM	
Cc1ccc(C#N)cc1 [4-Methylbenzonitrile]	> 90 µM	
Cc1ccc(C(=O)c2ccccc2)cc1 [4-Methylbenzophenone]	> 90 µM	
Cc1ccc(CO)cc1 [4-Methylbenzyl alcohol]	> 90 µM	
Cc1ccc(O)c(O)c1 [4-Methylcatechol]	38.5 µM	
CC1CCC(CO)CC1 (stereo not drawn) [4-Methylcyclohexanemethanol]	> 90 µM	
Cc1c[nH]cn1 [4-Methylimidazole]		CC50 at 24 h (AC50 (uM) modified / 1000, Tox21_110001=Tox21_201048, viability, 1 nM T3 present, 24 h): > 90 µM

Compound	CC50 at 24 h (AC50 (uM) modified / 1000)	also measured
C[N+]1([O-])CCOCC1 [4-Methylmorpholine 4-oxide]	> 90 µM	
CN1CCOCC1 [4-Methylmorpholine]	> 90 µM	
CC(=O)C=C(C)C [4-Methylpent-3-en-2-one]		CC50 at 24 h (AC50 (uM) modified / 1000, Tox21_110001=Tox21_202080, viability, 1 nM T3 present, 24 h): > 100 µM; CC50 at 24 h (AC50 (uM) modified / 1000, Tox21_110001=Tox21_303606, viability, 1 nM T3 present, 24 h): > 90 µM
CC(C)CCCO [4-Methylpentan-1-ol]	> 90 µM	
Cc1ccc(OC(=O)CC(C)C)cc1 [4-Methylphenyl 3-methylbutanoate]	> 90 µM	
Cc1ccc2c(c1)C(=O)OC2=O [4-Methylphthalic anhydride]	> 90 µM	
Cc1cn[nH]c1 [4-Methylpyrazole hydrochloride]	> 50 µM	
Cc1ccnc(N)c1 [4-Methylpyridin-2-amine]	> 90 µM	
Cc1ccncc1 [4-Methylpyridine]	> 100 µM	
C=Cc1ccc(C)cc1 [4-Methylstyrene]	> 90 µM	
Cc1cscn1 [4-Methylthiazole]	> 90 µM	
O=CN1CCOCC1 [4-Morpholinecarboxaldehyde]	> 90 µM	
NCCCN1CCOCC1 [4-Morpholinepropanamine]	> 90 µM	
O=S(=O)(O)CCCN1CCOCC1 [4-Morpholinepropanesulfonic acid]	> 90 µM	
Nc1ccc([N+](=O)[O-])c(N)c1 [4-Nitro-1,3-benzenediamine]	64.4 µM	
CC(=O)c1ccc([N+](=O)[O-])cc1 [4-Nitroacetophenone]	> 90 µM	
Nc1ccc([N+](=O)[O-])cc1 [4-Nitroaniline]	> 90 µM	
Nc1cc([N+](=O)[O-])ccc1C(=O)O [4-Nitroanthranilic acid]	> 90 µM	
O=Cc1ccc([N+](=O)[O-])cc1 [4-Nitrobenzaldehyde]	> 90 µM	
NC(=O)c1ccc([N+](=O)[O-])cc1 [4-Nitrobenzamide]	> 90 µM	
O=C(O)c1ccc([N+](=O)[O-])cc1 [4-Nitrobenzoic acid]	> 90 µM	
O=C(Cl)c1ccc([N+](=O)[O-])cc1 [4-Nitrobenzoyl chloride]	> 90 µM	
